The text below walks through data of patent publication US7763627B2, “Tie-2 modulators and methods of use” (Exelixis, Inc., priority 2003, dated 2010).

By IC50 is commonly meant the concentration that inhibits the measured activity by half. A lower IC50 goes with greater potency in that assay.

For this test, the target named is Tie-2 (Homo sapiens, UniProt Q02763). As to the kind of experiment: Tie-2 tyrosine kinase inhibition (ATP consumption by luciferase/luciferin chemiluminescence or 33P-ATP incorporation into pEY substrate). It counts as biochemical. The settings on record: human enzyme Tie-2; inhibition given as class symbol. The method, then: Tyrosine kinase activity is determined by 1) measurement of kinase-dependent ATP consumption by in the presence of a generic substrate such as polyglutamine, tyrosin (pEY), by luciferase/luciferin-mediated chemiluminescence or; 2) incorporation of radioactive phosphate derived from ^33P-ATP into a generic substrate which has been adsorbed onto the well surface of polystyrene microtiter plates. Phosphorylated substrate products are quantified by scintillation spectrometry.
Chain of Tie-2 (Q02763 23-1124): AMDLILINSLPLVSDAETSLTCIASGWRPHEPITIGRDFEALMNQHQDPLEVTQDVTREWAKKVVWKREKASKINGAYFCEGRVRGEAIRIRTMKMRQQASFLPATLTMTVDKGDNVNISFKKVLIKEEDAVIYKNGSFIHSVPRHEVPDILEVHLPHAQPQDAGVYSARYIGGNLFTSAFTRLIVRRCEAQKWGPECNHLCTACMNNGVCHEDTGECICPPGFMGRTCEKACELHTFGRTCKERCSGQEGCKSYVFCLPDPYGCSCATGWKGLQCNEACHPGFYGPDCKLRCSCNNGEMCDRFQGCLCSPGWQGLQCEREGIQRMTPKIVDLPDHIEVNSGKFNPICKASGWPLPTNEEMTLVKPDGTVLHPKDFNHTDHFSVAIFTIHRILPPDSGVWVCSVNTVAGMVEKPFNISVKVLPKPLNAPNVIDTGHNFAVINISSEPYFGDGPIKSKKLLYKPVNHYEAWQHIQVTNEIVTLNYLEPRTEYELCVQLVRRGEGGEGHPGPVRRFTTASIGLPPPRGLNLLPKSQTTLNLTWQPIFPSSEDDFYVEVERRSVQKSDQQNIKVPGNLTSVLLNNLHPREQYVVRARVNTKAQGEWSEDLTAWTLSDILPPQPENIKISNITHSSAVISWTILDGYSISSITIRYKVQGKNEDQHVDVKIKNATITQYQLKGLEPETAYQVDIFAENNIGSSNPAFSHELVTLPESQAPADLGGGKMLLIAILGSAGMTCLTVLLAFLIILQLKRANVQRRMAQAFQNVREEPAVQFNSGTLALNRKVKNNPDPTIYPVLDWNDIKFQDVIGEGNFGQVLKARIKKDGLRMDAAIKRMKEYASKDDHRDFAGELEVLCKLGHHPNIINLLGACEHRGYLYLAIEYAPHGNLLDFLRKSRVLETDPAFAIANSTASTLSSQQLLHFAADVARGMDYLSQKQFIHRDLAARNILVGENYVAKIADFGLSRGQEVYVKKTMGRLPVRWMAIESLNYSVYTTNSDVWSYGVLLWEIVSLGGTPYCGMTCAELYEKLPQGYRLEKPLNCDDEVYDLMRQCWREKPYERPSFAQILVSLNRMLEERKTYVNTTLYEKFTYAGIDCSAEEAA
Inhibition is indicated as IC50 with following key: A=IC50 less than 50 nM, B=IC50 greater than 50 nM, but less than or equal to 1000 nM, C=IC50 greater than 1000 nM, but less than 10,000 nM, and D=IC50 10,000 nM or greater. The abbreviation for human enzyme, Tie-2, is defined as tyrosine kinase with immunoglobulin and EGF repeats.
Compound `CCc1cc(-c2nc(N[C@@H]3c4ccccc4C[C@@H]3O)c3ccccc3n2)ccn1` [Compound 44, (1R,2S)-1-{[2-(2-ethylpyridin-4-yl)quinazolin-4-yl]amino}-2,3-dihydro-1H-inden-2-ol] had an IC50 not below 10 µM. To `O[C@@H]1Cc2ccccc2[C@@H]1Nc1nc(-c2ccncc2)nc2ccc(Br)cc12` [Compound 45, (1S,2R)-1-[(6-bromo-2-pyridin-4-ylquinazolin-4-yl)amino]-2,3-dihydro-1H-inden-2-ol] belongs less than 0.05 µM; to `COc1cc2nc(-c3ccncc3)nc(N[C@H]3c4ccccc4C[C@H]3O)c2cc1OC` [Compound 46, (1S,2R)-1-{[6,7-bis(methyloxy)-2-pyridin-4-ylquinazolin-4-yl]amino}-2,3-dihydro-1H-inden-2-ol], 0.05 to 1 µM; to `OC1CCCN(c2nc(-c3ccncc3)nc3ccccc23)C1` (stereo not drawn) [Compound 47, 1-(2-pyridin-4-ylquinazolin-4-yl)piperidin-3-ol], not below 10 µM.

`O[C@@H]1Cc2ccccc2[C@@H]1Nc1nc(-c2ccncc2)nc2cc(C(F)(F)F)ccc12` [Compound 48, (1S,2R)-1-{[2-pyridin-4-yl-7-(trifluoromethyl)quinazolin-4-yl]amino}-2,3-dihydro-1H-inden-2-ol] gave an IC50 of 0.05 to 1 µM. `COc1ccc(-c2nc(N[C@H]3c4ccccc4C[C@H]3O)c3ccccc3n2)cn1` [Compound 49, (1S,2R)-1-({2-[6-(methyloxy)pyridin-3-yl]quinazolin-4-yl}amino)-2,3-dihydro-1H-inden-2-ol]: the IC50 was 1 to 10 µM.

`c1ccc2c(N[C@H]3CCCNC3)nc(-c3ccncc3)nc2c1` [Compound 50, N-[(3S)-piperidin-3-yl]-2-pyridin-4-ylquinazolin-4-amine] returned an IC50 not below 10 µM. Compound `Cc1ccc2c(N[C@H]3c4ccccc4C[C@H]3O)nc(-c3ccncc3)nc2c1` [Compound 51, (1S,2R)-1-[(7-methyl-2-pyridin-4-ylquinazolin-4-yl)amino]-2,3-dihydro-1H-inden-2-ol] registered an IC50 of less than 0.05 µM. `COc1ncc(-c2nc(N[C@H]3c4ccccc4C[C@H]3O)c3ccccc3n2)c(OC)n1` [Compound 52, (1S,2R)-1-({2-[2,4-bis(methyloxy)pyrimidin-5-yl]quinazolin-4-yl}amino)-2,3-dihydro-1H-inden-2-ol]: the IC50 is not below 10 µM. To `CC(C)[C@H](CO)Nc1nc(-c2ccncc2)nc2ccccc12` [Compound 53, (2R)-3-methyl-2-[(2-pyridin-4-ylquinazolin-4-yl)amino]butan-1-ol] belongs not below 10 µM. To `CC(C)[C@@H](CO)Nc1nc(-c2ccncc2)nc2ccccc12` [Compound 54, (2S)-3-methyl-2-[(2-pyridin-4-ylquinazolin-4-yl)amino]butan-1-ol] belongs 1 to 10 µM; to `OC[C@@H](Nc1nc(-c2ccncc2)nc2ccccc12)c1ccccc1` [Compound 55, (2S)-2-phenyl-2-[(2-pyridin-4-ylquinazolin-4-yl)amino]ethanol], 1 to 10 µM; to `OC[C@H](Nc1nc(-c2ccncc2)nc2ccccc12)c1ccccc1` [Compound 56, (2R)-2-phenyl-2-[(2-pyridin-4-ylquinazolin-4-yl)amino]ethanol], 1 to 10 µM. To `O[C@@H]1Cc2ccccc2[C@@H]1Nc1ccnc(-c2ccncc2)n1` [Compound 57, (1S,2R)-1-[(2-pyridin-4-ylpyrimidin-4-yl)amino]-2,3-dihydro-1H-inden-2-ol] belongs 0.05 to 1 µM; to `O[C@@H]1Cc2ccccc2[C@@H]1Nc1nc(-c2cnccn2)nc2ccccc12` [Compound 58, (1S,2R)-1-[(2-pyrazin-2-ylquinazolin-4-yl)amino]-2,3-dihydro-1H-inden-2-ol], not below 10 µM; to `Nc1ccncc1-c1nc(N[C@H]2c3ccccc3C[C@H]2O)c2ccccc2n1` [Compound 59, (1S,2R)-1-{[2-(4-aminopyridin-3-yl)quinazolin-4-yl]amino}-2,3-dihydro-1H-inden-2-ol], not below 10 µM. Regarding `OC[C@@H](Cc1ccccc1)Nc1nc(-c2ccncc2)nc2ccccc12` [Compound 60, (2R)-3-phenyl-2-[(2-pyridin-4-ylquinazolin-4-yl)amino]propan-1-ol], the IC50 was not below 10 µM. To `OC[C@H](Cc1ccccc1)Nc1nc(-c2ccncc2)nc2ccccc12` [Compound 61, (2S)-3-phenyl-2-[(2-pyridin-4-ylquinazolin-4-yl)amino]propan-1-ol] belongs 1 to 10 µM; to `OCCN(Cc1ccccc1)c1nc(-c2ccncc2)nc2ccccc12` [Compound 62, 2-[(phenylmethyl)(2-pyridin-4-ylquinazolin-4-yl)amino]ethanol], 1 to 10 µM; to `Nc1nccc(-c2nc(N[C@H]3c4ccccc4C[C@H]3O)c3ccccc3n2)n1` [Compound 63, (1S,2R)-1-{[2-(2-aminopyrimidin-4-yl)quinazolin-4-yl]amino}-2,3-dihydro-1H-inden-2-ol], 0.05 to 1 µM. As for `Oc1ccc(-c2nc(N[C@H]3c4ccccc4C[C@H]3O)c3ccccc3n2)cn1` [Compound 64, 5-(4-{[(1S,2R)-2-hydroxy-2,3-dihydro-1H-inden-1-yl]amino}quinazolin-2-yl)pyridin-2-ol], the figure is not below 10 µM; as for `CSc1nccc(-c2nc(N[C@H]3c4ccccc4C[C@H]3O)c3ccccc3n2)n1` [Compound 65, (1S,2R)-1-({2-[2-(methylthio)pyrimidin-4-yl]quinazolin-4-yl}amino)-2,3-dihydro-1H-inden-2-ol], not below 10 µM. As for `OCCN1CCN(Nc2nc(-c3ccncc3)nc3ccccc23)CC1` [Compound 66, 2-{-4-[(2-pyridin-4-ylquinazolin-4-yl)amino]piperazin-1-yl}ethanol], the figure is not below 10 µM; as for `c1ccc2c(NN3CCCCC3)nc(-c3ccncc3)nc2c1` [Compound 67, N-piperidin-1-yl-2-pyridin-4-ylquinazolin-4-amine], not below 10 µM.
